# According to patent publication US10314883B2, “Compositions and methods for regulating blood pressure” (University of Virginia Patent Foundation, priority 2015, dated 2019):
# What was measured:
# Panx1 [1] = target: T1, Panx1 (Mus musculus, UniProt Q9JIP4); assay: Whole-cell patch clamp of CBX-sensitive Panx1 current in HEK293 cells cotransfected with mPanx1 and α1DAR; assay type: cell-based; conditions: CBX 50 μmol/L after phenylephrine, +80 mV
# T1 construct: we progressively substituted amino acids in this region of full-length Panx1 with alanine residues; HA; expressed in transfected cells; host or cells: HEK293T cells, transient co-transfection with alpha1DAR plasmid (Origene, NM_013460, C-terminal Myc-DDK)
# Protocol: Human Embryonic Kidney (HEK) 293T cells were cultured as previously described, and were used until passage 20. For ATP measurements, 50,000 cells/well were seeded in 24 well plates pre-coated with 0.01% poly-L-lysine, and transfected using Lipofectamine 2000 (Invitrogen) according to the manufacturer protocol. Briefly, 0.4 μg of α1DAR and 0.4 μg of Panx1^WT, Panx1^KYP>AAA, Panx1^IVEQ>AAA or Panx1^YLK>AAA plasmids were added to each well along with 2 μl of Lipofectamine 2000. For electrophysiology measurements, 4 μg of α1DAR plasmid, 2 μg of Panx1^WT, Panx1^KYP>AAA, Panx1^IVEQ>AAA or Panx1^YLK>AAA plasmids, and 0.5 μg of GFP plasmid were mixed with 10 μl Lipofectamine 2000 and added to a well of 6-well plate seeded with ˜70% confluent HEK cells. Cells were split the next morning and plated onto a glass coverslip for recording. ATP measurements and whole-cell recordings were performed 24 hours after transfection.
# Whole-cell recordings were obtained at room temperature from transiently transfected HEK293T cells using Axopatch 200B amplifier (Molecular Devices) in a bath solution composed of 140 mmol/L NaCl, 3 mmol/L KCl, 2 mmol/L MgCl2, 2 mmol/L CaCl2, 10 mmol/L HEPES and 10 mmol/L glucose (pH 7.3). Patch pipettes (3-5 MΩ) were filled with a Cs-/TEA-based internal solution, as previously described. Ramp voltage commands with 7-s intervals were applied using pCLAMP software and Digidata1322A digitizer (Molecular Devices). Peak whole-cell currents were determined at +80 mV and normalized to cell capacitance. Current mediated by Panx1 was defined by its sensitivity to carbenoxolone (CBX). In this system, no CBX-sensitive current is observed in HEK293T cells without Panx1. Basal current was recorded for approximately two minutes and PE (20 μmol/L) was applied to the bath solution, which was followed by addition of CBX (50 μmol/L). When indicated, cells were pre-incubated with bath solution containing IL2 peptide or its scrambled version at room temperature for 40-60 minutes prior to the experiment. The effect of PE on Panx1 current was quantified relative to CBX-sensitive basal current, and data was expressed as percent increase in CBX-sensitive current. All experiments were performed on 8 to 22 cells for each conditions tested. Data were analyzed using a Kruskall Wallis test (non-parametric one-way ANOVA) followed by Dunn's post-hoc test.
# To test if α1AR stimulation triggered opening of the Panx1 channel and the importance of the region represented by the IL2 peptide, we cotransfected mPanx1 and α1DAR into HEK293 cells and monitored whole-cell currents by patch clamp electrophysiology.
# Panx1 [2] = target: T2, Panx1 (Homo sapiens, UniProt Q96RD7); conditions: cited from earlier work
# Target sequence in this assay (Q96RD7 whole entry): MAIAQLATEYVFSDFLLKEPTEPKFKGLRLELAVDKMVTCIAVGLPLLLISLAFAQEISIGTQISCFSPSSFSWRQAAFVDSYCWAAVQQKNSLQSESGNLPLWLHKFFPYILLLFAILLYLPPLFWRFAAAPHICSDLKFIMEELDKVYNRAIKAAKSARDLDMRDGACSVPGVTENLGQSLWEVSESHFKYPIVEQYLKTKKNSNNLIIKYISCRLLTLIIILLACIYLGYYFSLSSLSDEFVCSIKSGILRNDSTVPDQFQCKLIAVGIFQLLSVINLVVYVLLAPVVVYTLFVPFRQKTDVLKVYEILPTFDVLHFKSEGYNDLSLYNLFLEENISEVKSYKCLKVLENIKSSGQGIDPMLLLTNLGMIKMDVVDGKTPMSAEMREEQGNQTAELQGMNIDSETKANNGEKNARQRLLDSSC
# [3] = tested on: anaesthetized guinea pigs; conditions: injected into anaesthetized guinea pigs; cited from earlier work
# Cre/Panx1 mice = assay: Blood pressure by radiotelemetry before and after tamoxifen in the conditional KO mouse model; assay type: in vivo
# Protocol: Blood pressure was measured using radiotelemetry units (Data Sciences International, DSI) implanted in C57Bl/6, Cre^−/Panx1^F1, Cre^−/Panx1^WT, Cre^+/Panx1^WT, and Cre^+/Panx1^F1 mice. The catheter of a radiotelemetry unit (TA11PA-C10, DSI) was implanted in the mouse left carotid artery under isoflurane anesthesia, and the catheter was tunneled trough the radiotransmitter placed in a subcutaneous pouch along the right flank of the mouse, as previously described. After implantation, mice were allowed to recover for seven days.
# For experiments on the conditional KO mouse model: blood pressure was measured using Dataquest A.R.T. 20 software (DSI) for five days before proceeding to tamoxifen injections at 1 mg/kg for ten days. Blood pressure was recorded for another five days 24 hours after the last tamoxifen injection. The change in mean arterial pressure (ΔMAP) was calculated by subtracting the average MAP measured for five days before tamoxifen injections to the mean arterial pressure measured for five days after the tamoxifen injections. […]
# Based on the central role of α1AR signaling in blood pressure homeostasis, we evaluated the effect of Panx1 deletion on systemic blood pressure. Blood pressure was measured using radiotelemetry units as previously described by us. Blood pressure was measured on the conditional KO mouse model for five days before proceeding to tamoxifen injections, and for another five days 24 hours after the last tamoxifen injection. The change in mean arterial pressure (ΔMAP) was calculated by subtracting the average MAP measured for five days before tamoxifen injections to the MAP measured for five days after the tamoxifen injections. Day MAP was measured during the light cycle (06:00-18:00), while night MAP was measured during the nocturnal cycle (18:00 to 06:00). For experiments on C57Bl/6, basal blood pressure was measured continuously for 30 minutes before intraperitoneal injection of saline solution or peptide, and for 1.5 hours after the injection. […]
# [4] = tested on: thoracodorsal arteries (TDA); assay: Pressure myography: agonist-induced constriction of pressurized TDAs from C57Bl/6 mice with pannexin inhibitors or Panx1 mimetic peptides; assay type: cell-based, mouse
# Protocol: The contractile responses of pressurized thoracodorsal arteries (TDA) were measured as previously described. Briefly, TDA were isolated and placed in cold Krebs-HEPES until cannulation in a pressure arteriograph (Danish MyoTechnology). After a 30 minute equilibration period, cumulative concentrations of contractile agonists were applied to the TDA pressurized at 80 mmHg, and the vessel was visualized with an Olympus IX-71 microscope attached to a Hamamatsu EM-CCD camera coupled to Slidebook imaging software. […] Lastly, maximal diameter was measured at the end of each experiment in calcium-free Krebs-HEPES supplemented with EGTA (1 mmol/L) and sodium nitroprusside (10 μmol/L). In cases where the vessels were not constricting to the contractile agonist, their viability was assessed by applying 40 mM KCl and only TDA reaching 30% of the maximal diameter were considered for analysis. The contractile responses, as well as the basal tone, are expressed as a percentage of the maximal diameter.
# Using pressure arteriography on TDA dissected from C57Bl/6 mice (as described; and aortic ring contraction, as described), we measured the effect of pannexin inhibitors, probenecid and 10Panx1, on the contractile response upon stimulation with different vasoconstrictors: phenylephrine (FIG. 1A), noradrenaline (also called norepinephrine) (FIG. 1B), serotonin (also known as 5-HT) (FIG. 1C) and endothelin-1 (FIG. 1D). […] In contrast, ^10Panx1 and probenecid had no effect on contraction of TDA measured in response to cumulative concentrations of serotonin or endothelin-1 (FIGS. 1C-D; Table 1).
# To determine the region of Panx1 necessary for channel activation in response to α1AR stimulation, we produced short peptides derived from the intracellular regions of the Panx1 channel. We generated two peptides mimicking unique mouse Panx1 (mPanx1) sequences in the first intracellular loop (IL1 and IL2) and two peptides mimicking unique mPanx1 sequences in the C-terminal region, one in second intracellular loop (CT1) and one in the C-terminal tail (CT2) (FIG. 4A scissors indicate caspase 3 cleavage site; Table 3). All peptides also contained a TAT sequence to facilitate entry into cells and we verified the intracellular localization of each peptide by immunofluorescence detection of the TAT sequence in TDAs pre-incubated with each peptide (FIG. 7A). We tested the effect of each peptide on phenylephrine-induced contractile responses in pressurized TDAs from C57Bl/6 mice (FIGS. 4B-E). […] Note that these differences in effects of phenylephrine were similar in magnitude to those observed in arteries from SMC-specific Panx1-knockout mice and littermate controls (FIG. 2C, Table 2).
# Panx1 [5] = target: T2, Panx1; conditions: neurons; cited from earlier work
# Target sequence in this assay (Q96RD7 whole entry, species assumed): as the sequence (Q96RD7 whole entry) above
# T1 sequence (Q9JIP4 whole entry): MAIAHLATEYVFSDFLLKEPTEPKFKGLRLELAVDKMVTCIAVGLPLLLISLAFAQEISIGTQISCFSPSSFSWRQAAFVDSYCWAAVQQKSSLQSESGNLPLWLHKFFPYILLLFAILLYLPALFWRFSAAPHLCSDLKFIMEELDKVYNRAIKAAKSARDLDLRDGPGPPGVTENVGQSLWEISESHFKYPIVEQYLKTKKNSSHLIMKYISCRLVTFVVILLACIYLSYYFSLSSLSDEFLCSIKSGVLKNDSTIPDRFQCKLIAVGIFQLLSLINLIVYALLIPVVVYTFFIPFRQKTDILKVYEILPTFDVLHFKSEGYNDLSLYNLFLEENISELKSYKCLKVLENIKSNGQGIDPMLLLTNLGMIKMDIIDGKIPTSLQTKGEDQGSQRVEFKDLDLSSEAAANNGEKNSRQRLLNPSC
compound,measurement,setting,value
"CC1(C)[C@@H](OC(=O)CCC(=O)O)CC[C@]2(C)[C@H]3C(=O)C=C4[C@@H]5C[C@@](C)(C(=O)O)CC[C@]5(C)CC[C@@]4(C)[C@]3(C)CC[C@@H]12 [CBX, carbenoxolone]",effect on Panx1 whole-cell current,Panx1 [1],abolished the current
N[C@@H]1[C@H]2CN(c3nc4c(cc3F)c(=O)c(C(=O)O)cn4-c3ccc(F)cc3F)C[C@@H]12 [Trovafloxacin],inhibition of Panx1 channels,Panx1 [2],can also inhibit Panx1 channels
OC(c1cc(C(F)(F)F)nc2c(C(F)(F)F)cccc12)C1CCCCN1 (stereo not drawn) [mefloquine],effect on blood pressure,[3],induces hypotension
CC/C(=C(\c1ccccc1)c1ccc(OCCN(C)C)cc1)c1ccccc1 [tamoxifen],heart rate,"Cre/Panx1 mice; Cre^+/Panx1^Fl mice, after tamoxifen",549±7 beats per min
same,decrease of mean arterial blood pressure,"Cre/Panx1 mice; Cre^+/Panx1^Fl mice, tamoxifen 1 mg/kg i.p. for ten days (induces SMC Panx1 deletion)",4.6±2.1 mmHg
same,change of mean arterial blood pressure,"Cre/Panx1 mice; mice retaining Panx1 (Cre^−/Panx1^WT, Cre^−/Panx1^Fl, Cre^+/Panx1^WT)",no evident changes
mPanx1 305-RRLKVYEILPTFDVLH-318 (SEQ ID NO: 5) linked with TAT; previously published to inhibit NMDA-mediated Panx1 opening [CT1],effect on phenylephrine-induced constriction of pressurized TDAs,"[4]; TAT-linked peptides, C57Bl/6 TDAs",did not affect
same,EMAX of phenylephrine for TDA constriction,[4]; in presence of the named peptide,50.7 ± 9.08 percentage of maximal diameter
same,effect on NMDA-induced Panx1 activation,Panx1 [5],prevent
